Laboratory results reported in patent US20100093733A1, “AMIDE AND UREA DERIVATIVES FOR THE TREATMENT OF METABOLIC DISEASES” (PROSIDION LIMITED, priority 2007, published 2010).

Target: T1, human DGAT1 (Homo sapiens, UniProt O75907)
T1 construct: Full length human DGAT10RF (1467 bp); 6xHis (pFastBac HTa vector leader) (N); made in house; host or cells: Sf21 insect cells (baculovirus); microsome fraction
T1 sequence (O75907 1-488): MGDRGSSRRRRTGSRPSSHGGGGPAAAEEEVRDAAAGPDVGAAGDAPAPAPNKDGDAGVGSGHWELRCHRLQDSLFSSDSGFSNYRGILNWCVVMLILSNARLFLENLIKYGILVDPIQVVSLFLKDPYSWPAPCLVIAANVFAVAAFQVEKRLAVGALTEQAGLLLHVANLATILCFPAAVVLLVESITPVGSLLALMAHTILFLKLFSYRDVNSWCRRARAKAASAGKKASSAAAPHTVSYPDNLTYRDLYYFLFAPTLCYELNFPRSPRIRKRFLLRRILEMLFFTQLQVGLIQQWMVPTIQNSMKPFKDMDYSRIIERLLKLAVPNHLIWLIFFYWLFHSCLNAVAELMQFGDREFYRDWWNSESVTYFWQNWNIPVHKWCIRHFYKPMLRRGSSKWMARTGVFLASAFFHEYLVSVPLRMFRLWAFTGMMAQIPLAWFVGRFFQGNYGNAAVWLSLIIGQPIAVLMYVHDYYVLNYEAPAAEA
Assay: Evaluation of DGAT1 enzyme inhibition (14C-oleoyl CoA, TLC of triglyceride)
Format: biochemical
Conditions: human DGAT1 microsomes from Sf21 cells, 30° C., 20 min
Method: DGAT assays for compound screening were carried out in 96-well round bottom plates in a total volume of 50 μl containing 25 mM Hepes pH 7.4, 150 mM NaCl, 2 mM MgCl2, 20 mM sodium fluoride, 1 mM dithiothreitol, 0.5 mg/mL BSA, 0.1% Triton X100, 200 uM DAG (1,2-dioleoyl-sn-glycerol) and 15 μM [^14C] oleoyl CoA (specific activity 50-60 mCi/mmol) and a range of inhibitor concentrations in 1% DMSO. Reactions were initiated by the addition of human DGAT1 microsomes (0.4 μg/well) followed by incubation at 30° C. for 20 min. At the end of incubation, reactions were stopped by the addition of 5 μl 0.5N HCl, then 4 μl of each reaction was spotted directly onto a silica gel 60 (20×20 cm) TLC plate pre-scored to give twenty 1 cm wide lanes for lipid separation. […]
Following chromatography, the triglyceride spots were cut out and placed in a scintillation vial for counting. The percentage inhibition values were calculated relative to control and where appropriate IC50 values were derived using the 4 parameter logistic model in XL fit.
The enzyme source used for the assay was prepared from Sf21 cells infected with baculovirus expressing human DGAT1. Full length human DGAT10RF (1467 bp) (Nucleotide Accession: NM 012079; Protein Accession: NP036211) was PCR amplified from human liver cDNA (Marathon Ready) and cloned into pFastBac HTa vector (Life Technologies) containing a 6-Histidine N-terminus. […]

| IC50 | SMILES |
| --- | --- |
| 1.8 µM | COC(=O)[C@H]1CC[C@H](c2ccc(NC(=O)c3cc4ccccc4s3)cn2)CC1 [Example 114, Trans-4-{5-[(Benzo[b]thiophene-2-carbonyl)amino]-pyridin-2-yl}-cyclohexane-carboxylic acid methyl ester] |
| 1.3 µM | COc1ccc(C)cc1NC(=O)Nc1ccc([C@H]2CC[C@](O)(CC(=O)O)CC2)cc1 [Example 137, Syn-(1-Hydroxy-4-{4-[3-(2-methoxy-5-methylphenyl)-ureido]phenyl}-cyclohexyl)-acetic acid] |
